# Test results as given in EP2785358B1, “INSULIN-MIMETICS AS THERAPEUTIC ADJUNCTS FOR BONE REGENERATION” (priority 2011, dated 2013).
# Several values for one entry are separate records, joined by “and”; a condition that tells them apart may be missing. Identical values can stand only once. Marks after values point to notes of the source that are not given here.
# Assays:
# femur fractures [1] = experiment: Long-term radiographic analysis at twelve weeks, local VAC; format: in vivo, normal (non-diabetic) rats; details: for ectopic bone formation on radiographs: twelve weeks post-fracture
# Procedure: The effect of local vanadium therapy on healing of femur fractures in normal (non-diabetic) rats was measured by radiographic analysis.
# [2] = Vanadium quantification in femur by atomic absorption spectrophotometry; format: in vivo, BB Wistar rats; details: 0.1 mL of 4.35 mg/mL VAC solution (approximately 1.5 mg VAC/kg) into femoral canal
# Procedure: BB Wistar rats were anesthetized and confirmed to be non-responsive to external stimuli before beginning the surgical procedure. The anesthetized rat was be exsanguinated by cardiac puncture using a 10 ml syringe with a 22 gauge needle after shallow puncture just lateral to the sternum and through the intercostal space. After puncturing the dermis and cardiac wall slight backpressure was placed on the plunger to withdraw blood from the ventricle. The collected blood was transferred to an appropriate container used for collection of plasma (heparinized) or serum (non-heparinized). Following the cardiac puncture, the rats were euthanized via cervical dislocation.
# The excised femora were be stripped of adhering muscle, tendon and other tissue after which the bones were rinsed three times with deionized water, and then placed on glassine paper and air dried. The pin was rinsed once and stored in a clean conical tube. The liver, kidneys, brain, and left humerous collected were rinsed 3x and air dried. The objective of "drying" was to remove adhering water droplets after the water rinse and to allow the true tissue weight to be recorded as precisely as possible. […] The organs were then placed into a low temperature (-80 degrees Celsius) freezer for storage until future analysis (quantification not currently planned). […]
# femur fractures [3] = experiment: Histomorphometry, local VAC without a carrier; format: in vivo, BB Wistar rats; details: for % Cartilage / % Mineralized Tissue / Callus Area: no carrier
# Excerpt: Two independent reviewers were used to minimize inconsistencies.
# femur fractures [4] = experiment: Early immunohistochemistry (BrdU cell proliferation), local VAC; format: in vivo, BB Wistar rats
# Procedure: At days 2, 4, and 7, and 10, animals were injected intraperitoneally with 30 mg/kg of 5-bromo-2'deoxyuridine (BrdU, Sigma Chemical Co., St. Louis, MO) one hour prior to sacrifice to label replicating cells as a measure of cellular proliferation. The fractured femurs were resected and fixed in formalin, decalcified (Immunocal, Decal Corp., Tallman, NY), embedded in paraffin, and sectioned longitudinally (5 µm thick). Cells positive for BrdU incorporation were detected by immunohistochemistry using commercially available reagents (DAKO Corp., Carpentaria, California). Digital images of each fracture were collected with an Olympus BH2-RFCA microscope equipped with a Nikon DXM1200f camera. For each specimen, callus area was measured and the BrdU positive cells in the periosteal callus region were counted using Image Pro Plus software. All BrdU positive cells in the external callus to a maximum of 1 cm proximal and distal of the fracture site and 3 mm from the external surface of the femur were counted. The number of BrdU positive cells was normalized per unit area of callus and only one datum per rat (BrdU positive cells per mm2) was used for the statistical analysis.
# femur fractures [5] = experiment: Torsional mechanical testing, local VAC without a carrier in normal rats; format: in vivo, non-diabetic BB Wistar rats; set-up: Percent Effective Shear Modulus / Percent Effective Shear Stress: scale not given: direction of the effect not stated beside the values
# Procedure: A closed mid-diaphyseal fracture surgery was performed on the right femur of each rat as described previously. […] A closed, midshaft fracture was then created using a three-point bending fracture instrument (BBC Specialty Automotive, Linden NJ) and confirmed with X-rays immediately post-fracture.
# [6] = VAC 1.5 mg/kg local, 10 Days Post-Fracture
# [7] = VAC 1.5 mg/kg local, 14 Days Post-Fracture
# [8] = VAC 1.5 mg/kg local, 21 Days Post-Fracture
# [9] = VAC 3.0 mg/kg local, 10 Days Post-Fracture
# [10] = VAC 3.0 mg/kg local, 14 Days Post-Fracture
# [11] = VAC 3.0 mg/kg local, 21 Days Post-Fracture
# [12] = VAC 0.5 mg/kg local, no carrier, normal rats, 4 weeks
# [13] = VAC 0.5 mg/kg local, no carrier, normal rats, 4 weeks, normalized to intact femur
# [14] = VAC 1.5 mg/kg Autoclaved, no carrier, four weeks
# [15] = VAC 1.5 mg/kg Gamma Irradiated, no carrier, four weeks
# [16] = VAC 1.5 mg/kg local, no carrier, normal rats, 5 weeks
# [17] = VAC 1.5 mg/kg local, rats of advanced age (190-195 days), four weeks
# [18] = VAC 1.5 mg/kg without sterilization, no carrier, four weeks
# [19] = VAC 1.5 mg/kg without sterilization, no carrier, four weeks, normalized to intact femur
# [20] = VAC 3.0 mg/kg local, no carrier, normal rats, 4 weeks
# [21] = VAC 3.0 mg/kg local, no carrier, normal rats, 4 weeks, normalized to intact femur
structure (smiles),measurement,setting,value
"CC(=O)/C=C(/C)[O-].CC(=O)/C=C(/C)[O-].[O]=[V+2] [VAC, Vanadyl acetylacetonate]",ectopic bone formation on radiographs,femur fractures [1]; VAC high (3.0 mg/kg),no evidence of ectopic bone formation
same,ectopic bone formation on radiographs,femur fractures [1]; VAC low (1.5 mg/kg),no evidence of ectopic bone formation
same,toxic/carcinogenic effect (remodeling of femora),"femur fractures [1]; local VAC, throughout fracture healing, normal remodeling",no evidence of a toxic/carcinogenic effect
same,time locally injected VAC remains bound within the fractured femora,[2],approximately two weeks
same,% Cartilage,femur fractures [3]; [6],30.6 ± 12.4^∗ (n=7) %
same,% Mineralized Tissue,femur fractures [3]; [6],15.8 ± 5.1 (n=7) %
same,Callus Area,femur fractures [3]; [6],18.4 ± 3.6 (n=7) mm^2
same,% Cartilage,femur fractures [3]; [7],14.2 ± 4.9 (n=5) %
same,% Mineralized Tissue,femur fractures [3]; [7],21.3 ± 2.1^∗ (n=5) %
same,Callus Area,femur fractures [3]; [7],21.7 ± 5.0 (n=5) mm^2
same,% Cartilage,femur fractures [3]; [8],11.0± 4.7 (n=5) %
same,% Mineralized Tissue,femur fractures [3]; [8],32.7 ± 2.9^∗ (n=5) %
same,Callus Area,femur fractures [3]; [8],20.1 ± 4.5 (n=5) mm^2
same,percent cartilage compared to controls,"femur fractures [3]; VAC 1.5 mg/kg, 7 days (and 10 days), p < 0.05",statistically higher
same,% Cartilage,femur fractures [3]; [9],17.8± 5.5 (n=5) %
same,% Mineralized Tissue,femur fractures [3]; [9],15.2 ± 3.4 (n=5) %
same,Callus Area,femur fractures [3]; [9],18.6 ± 2.9 (n=5) mm^2
same,% Cartilage,femur fractures [3]; [10],13.0 ± 6.4 (n=5) %
same,% Mineralized Tissue,femur fractures [3]; [10],21.9 ± 3.2^∗ (n=5) %
same,Callus Area,femur fractures [3]; [10],19.3 ± 3.1 (n=5) mm^2
same,% Cartilage,femur fractures [3]; [11],9.4± 5.7 (n=4) %
same,% Mineralized Tissue,femur fractures [3]; [11],33.4 ± 5.2 (n=4) %
same,Callus Area,femur fractures [3]; [11],20.3± 5.1 (n=4) mm^2
same,cell proliferation (BrdU positive cells) in the periosteum versus control,"femur fractures [4]; seven and ten days post-fracture, p < 0.05",significantly more proliferating cells per unit area
same,cell proliferation (BrdU positive cells) versus control,femur fractures [4]; two or four days post-fracture,no significant differences
same,Percent maximum torsional rigidity,"femur fractures [5]; VAC 0.25 mg/kg local, no carrier, normal rats, 4 weeks, normalized to intact femur",67 ± 21 ^∗ Percent
same,Maximum Torque to Failure,femur fractures [5]; [12],"362 ± 49 ^∗,# Nmm"
same,Maximum Torsional Rigidity,femur fractures [5]; [12],"45,877 ± 13,079^∗ Nmm^2/rad"
same,Percent Maximum Torque to Failure,femur fractures [5]; [13],72 ± 19 ^∗ Percent
same,Percent maximum torsional rigidity,femur fractures [5]; [13],"103 ± 23 ^∗,# Percent"
same,Effective Shear Modulus,femur fractures [5]; [14],9.6×10^2 ± 7.8×10^2 MPa
same,Maximum Torsional Rigidity,femur fractures [5]; [14],3.4×10^4 ± 1.5×10^4* Nmm^2/rad and 3.4×10^4 ± 1.5×10^4∗ Nmm^2/rad
same,Percent maximum torsional rigidity,"femur fractures [5]; VAC 1.5 mg/kg Autoclaved, no carrier, four weeks, normalized to intact femur",70 ± 31 ^∗ Percent
same,Effective Shear Modulus,femur fractures [5]; [15],7.9×10^2 ± 2.4×10^2 MPa
same,Maximum Torsional Rigidity,femur fractures [5]; [15],2.6×10^4 ± 3.7×10^3 Nmm^2/rad
same,Maximum Torque to Failure,femur fractures [5]; [16],471 ± 91 Nmm
same,Maximum Torsional Rigidity,femur fractures [5]; [16],"34,522 ± 8,347^* Nmm^2/rad"
same,Effective Shear Modulus,femur fractures [5]; [17],1.3×10^3 ± 1.3×10^3 MPa
same,Effective Shear Stress,femur fractures [5]; [17],43± 17 MPa
same,Maximum Torsional Rigidity,femur fractures [5]; [17],3.0×10^4 ± 1.8×10^4 Nmm^2/rad
same,Mean Angle at Failure,femur fractures [5]; [17],12± 4 degrees
same,Percent Maximum Torque to Failure,"femur fractures [5]; VAC 1.5 mg/kg local, rats of advanced age (190-195 days), four weeks, normalized to intact femur",44 ± 10^∗ Percent
same,Effective Shear Modulus,femur fractures [5]; [18],2.5×10^3 ± 2.4×10^3 MPa
same,Effective Shear Stress,femur fractures [5]; [18],69 ± 59 MPa
same,Maximum Torque to Failure,femur fractures [5]; [18],329 ± 117 ^∗ Nmm
same,Maximum Torsional Rigidity,femur fractures [5]; [18],3.5×10^4 ± 1.7×10^4* Nmm^2/rad and 3.5×10^4 ± 1.7×10^4∗ Nmm^2/rad
same,Percent Effective Shear Modulus,femur fractures [5]; [19],23 ± 12 ^∗ Percent
same,Percent maximum torsional rigidity,femur fractures [5]; [19],76 ± 28 ^∗ Percent
same,Effective Shear Modulus,femur fractures [5]; [20],"2,948 ± 1,218 ^∗ MPa"
same,Effective Shear Stress,femur fractures [5]; [20],"101 ± 18 ^∗,#,& MPa"
same,Maximum Torque to Failure,femur fractures [5]; [20],"409 ± 43 ^∗,# Nmm"
same,Maximum Torsional Rigidity,femur fractures [5]; [20],"41,007 ± 11,236 ^∗ Nmm^2/rad"
same,Percent Effective Shear Modulus,femur fractures [5]; [21],20 ± 11 ^∗ Percent
same,Percent Effective Shear Stress,femur fractures [5]; [21],"30 ± 12 ^∗,# Percent"
same,Percent Maximum Torque to Failure,femur fractures [5]; [21],79 ± 12 ^∗ Percent
same,Percent maximum torsional rigidity,femur fractures [5]; [21],78 ± 10 ^∗ Percent
same,Maximum Torsional Rigidity,"femur fractures [5]; VAC 3.0 mg/kg local, no carrier, normal rats, 5 weeks","37,496 ± 12,846^∗ Nmm^2/rad"
same,increase in mechanical parameter of torsion,femur fractures [5]; VAC therapeutic dosage range 0.5 to 3.0 mg/Kg,two to three-fold
